Reference: US20260098019A1, “SYNTHESIS OF NSAID CONJUGATES AS ANTI-INFLAMMATORY AGENTS USING THE MOLECULAR HYBRIDIZATION” (AUGUSTA UNIVERSITY RESEARCH INSTITUTE, INC., priority 2022, published 2026)
Marks after values point to notes of the source that are not given here.

Legend:
[1] = target: COX-1 (UniProt P05979); assay type: biochemical, human; details: ± SD
From the text: Rev. […] Thromb. Vasc. […] Rev. […] Rev. […] Rev. Oncol. Hematol. […] Curr. Pharm. Des. […] Luong, et al., Nat. Struct. […] A. and Marnett, L. J., Chem. Rev. […] Drug Discov. […] Biomol.

[2] = test system: hot plate latency; assay: hot plate test (central analgesic); assay type: in vivo, albino mice; details: for Observed property: % Protection central analgesic (120 min); for Latency period ± SE: 10 mg/kg indomethacin mol equivalent i.p., cutoff 15 seconds; for % Protection: vs control; for Potency: at 120 min. compared to indomethacin
Method: An in vivo standard hot plate test was performed. […] The control group animals were given sterile/distilled water with few drops of Tween 80. The maximum cutoff time was 15 seconds to prevent tissue damage. Response latencies were measured at 30, 60, 90 and 120 inns. The % protection was calculated by equ. (5), where, Ti, To are the latency time mean of the tested compound and control group respectively (Table 3).

[3] = test system: gastric mucosa; assay: ulcerogenic liability; details: for % Incidence of ulcer divided by 10 / Average of ulcer number / Average severity of ulcer / Number of animals with ulcer: three successive days, 10 mg/kg indomethacin mol equivalent; for Number of animals with ulcer: 6 animals
Method: The ulcerogenic liability of conjugates was determined in albino mice following a standard method. Animals of either sex (pregnant females were excluded) weighing 20-25 g were divided into 8 groups of 6 animals each. The animals fasted 18 h before drug administration. […] The control group animals were given water with a few drops of Tween 80. The animals were sacrificed by cervical dislocation and the stomach was removed, opened along the greater curvature, and rinsed with saline. The gastric mucosa was examined with a magnifying lens (10×) for the presence of lesions and erosions. The ulcer index was calculated (Table 4) and the degree of ulcerogenic effect was expressed in terms of: (1) the percentage incidence of ulcers divided by 10; (2) average number of ulcers per stomach; and (3) average severity of ulcers. The ulcer index is the value that resulted from the sum of the above three values.

[4] = test system: acetic acid-induced writhing; assay: acetic acid-induced writhing test (peripheral analgesic); assay type: in vivo, albino mice; details: for 1/(observed property): 1/(% inhibition) peripheral analgesic; for Observed property: % inhibition/protection peripheral analgesic; for % Inhibition/protection: vs control; for % Inhibition/protection / Writing reflex ± SE: 10 mg/kg indomethacin mol equivalent i.p.; for Potency: % inhibition/protection compared to indomethacin; for Writing reflex ± SE: number of writhing counted for 30 min
Method: Peripheral analgesic activity was measured by the standard acetic acid-induced writhing test in mice. […] One hour after the i.p. administration, each mouse was injected with 0.1 ml of 1% acetic acid solution i.p. The control group animals were given sterile/distilled water with few drops of Tween 80. Starting 5 min after the acetic acid injection, the number of muscular contractions in each mouse was counted for 30 min. A significant reduction in the number of writhing by a conjugate compared with control animals was considered as a positive analgesic response. Percentage protection was calculated according to equ. (3), where n is the average number of writhing in the control group and n′ is the average number of writhing in the treated group. The % potency was calculated by equ. (4) (Table 2).

Sequence of COX-1 (P05979 whole entry): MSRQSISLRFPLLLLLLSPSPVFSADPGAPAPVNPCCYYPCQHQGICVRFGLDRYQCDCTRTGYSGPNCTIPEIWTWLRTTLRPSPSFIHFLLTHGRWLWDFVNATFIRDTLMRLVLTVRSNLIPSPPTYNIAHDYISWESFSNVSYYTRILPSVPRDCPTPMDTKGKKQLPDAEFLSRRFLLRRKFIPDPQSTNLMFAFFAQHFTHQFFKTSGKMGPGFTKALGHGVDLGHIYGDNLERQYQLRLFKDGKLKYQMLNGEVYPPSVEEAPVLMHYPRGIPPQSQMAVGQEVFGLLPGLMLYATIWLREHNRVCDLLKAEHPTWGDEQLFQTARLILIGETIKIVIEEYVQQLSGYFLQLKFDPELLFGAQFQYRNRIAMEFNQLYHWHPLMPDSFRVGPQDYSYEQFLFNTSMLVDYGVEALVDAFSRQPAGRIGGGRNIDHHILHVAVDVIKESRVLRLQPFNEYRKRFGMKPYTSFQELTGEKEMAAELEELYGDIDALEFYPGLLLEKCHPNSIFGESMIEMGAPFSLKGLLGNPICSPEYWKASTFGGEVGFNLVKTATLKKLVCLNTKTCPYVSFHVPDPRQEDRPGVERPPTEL

CC(C)Cc1ccc(C(C)C(=O)OCc2cn(-c3ccccc3Cl)nn2)cc1 (stereo not drawn) [Compound 5a, (1-(2-Chlorophenyl)-1H-1,2,3-triazol-4-yl)methyl 2-(4-isobutylphenyl)propanoate]
IC50 [1]: 17.2 ± 0.41 µM
Observed property [2]: 54.5
ulcers or erosions to the gastric / ulcerogenic liability (in words) ([3]; mice, oral): none and No ulcerogenic liability
% Incidence of ulcer divided by 10 ([3]; oral): 0
Average of ulcer number ([3]; oral): 0
Average severity of ulcer ([3]; oral): 0
Number of animals with ulcer ([3]; oral): 0
Ulcer index ([3]; sum of the three values): 0
1/(observed property) [4]: 0.01201
Observed property [4]: 83.3
% Inhibition/protection [4]: 83.3%

CC(C)Cc1ccc(C(C)C(=O)OCc2cn(-c3ccc(F)cc3)nn2)cc1 (stereo not drawn) [Compound 5c, (1-(4-Fluorophenyl)-1H-1,2,3-triazol-4-yl)methyl 2-(4-isobutylphenyl)propanoate]
Observed property [2]: 18
% protection compared with parent compound ibuprofen ([2]; at 30 min): 1.8 folds
1/(observed property) [4]: 0.01201
Observed property [4]: 83.3

COc1ccc(-n2cc(COC(=O)C(C)c3ccc(CC(C)C)cc3)nn2)cc1 (stereo not drawn) [Compound 5f, (1-(4-Methoxyphenyl)-1H-1,2,3-triazol-4-yl)methyl 2-(4-isobutylphenyl)propanoate]
Observed property [2]: 0.2
1/(observed property) [4]: 0.0125
Observed property [4]: 80.0

CC(C)Cc1ccc(C(C)C(=O)OCc2cn(-c3ccc([N+](=O)[O-])cc3)nn2)cc1 (stereo not drawn) [Compound 5g, (1-(4-Nitrophenyl)-1H-1,2,3-triazol-4-yl)methyl 2-(4-isobutylphenyl)propanoate]
Observed property [2]: 28.1
1/(observed property) [4]: 0.01538
Observed property [4]: 65.0

C#CCOC(=O)Cc1c(C)n(C(=O)c2ccc(Cl)cc2)c2ccc(OC)cc12 [Compound 7, prop-2-yn-1-yl 2-(1-(4-chlorobenzoyl)-5-methoxy-2-methyl-1H-indol-3-yl) acetate]
Latency period ± SE ([2]; After 30 min.): 6.68 s
% Protection ([2]; After 30 min.): 2.0* (0.0) %
Latency period ± SE ([2]; After 60 min.): 9.54 ± 1.6 s
% Protection ([2]; After 60 min.): (31.2) %
Latency period ± SE ([2]; After 90 min.): 11.18 ± 1.5 s
% Protection ([2]; After 90 min.): (25.5) %
Latency period ± SE ([2]; After 120 min.): 10.78 ± 1.8 s
% Protection ([2]; After 120 min.): (19.6) %
Potency [2]: 34.7%
Potency [4]: 124.4%
Writing reflex ± SE [4]: 4.3 ± 0.5
% Inhibition/protection [4]: 89.3%

COc1ccc2c(c1)c(CC(=O)OCc1cn(-c3ccccc3Cl)nn1)c(C)n2C(=O)c1ccc(Cl)cc1 [Compound 8a, (1-(2-Chlorophenyl)-1H-1,2,3-triazol-4-yl)methyl 2-(1-(4-chlorobenzoyl)-5-methoxy-2-methyl-H-indol-3-yl)acetate]
Observed property [2]: 51.3
Latency period ± SE ([2]; After 30 min.): 12.19 s
% Protection ([2]; After 30 min.): (82.5) %
Latency period ± SE ([2]; After 60 min.): 13.51 s
% Protection ([2]; After 60 min.): 1.7** (85.8) %
Latency period ± SE ([2]; After 90 min.): 13.85 ± 1.4 s
% Protection ([2]; After 90 min.): (55.4) %
Latency period ± SE ([2]; After 120 min.): 13.63 ± 1.3 s
% Protection ([2]; After 120 min.): (51.3) %
Potency [2]: 90.8%
1/(observed property) [4]: 0.02028
Potency [4]: 68.7%
Observed property [4]: 49.3
Writing reflex ± SE [4]: 20.3 ± 1.8
% Inhibition/protection [4]: 49.3%

COc1ccc2c(c1)c(CC(=O)OCc1cn(-c3ccc(Cl)cc3)nn1)c(C)n2C(=O)c1ccc(Cl)cc1 [Compound 8b, (1-(4-Chlorophenyl)-1H-1,2,3-triazol-4-yl)methyl 2-(1-(4-chlorobenzoyl)-5-methoxy-2-methyl-1H-indol-3-yl)acetate]
Observed property [2]: 9.7
1/(observed property) [4]: 0.0216
Observed property [4]: 46.3

COc1ccc2c(c1)c(CC(=O)OCc1cn(-c3ccc(F)cc3)nn1)c(C)n2C(=O)c1ccc(Cl)cc1 [Compound 8c, (1-(4-Fluorophenyl)-1H-1,2,3-triazol-4-yl)methyl 2-(1-(4-chlorobenzoyl)-5-methoxy-2-methyl-1H-indol-3-yl)acetate]
Observed property [2]: 48.1
1/(observed property) [4]: 0.02421
Observed property [4]: 41.3

COc1ccc2c(c1)c(CC(=O)OCc1cn(-c3ccc(C)cc3)nn1)c(C)n2C(=O)c1ccc(Cl)cc1 [Compound 8d, (1-(p-Tolyl)-1H-1,2,3-triazol-4-yl)methyl 2-(1-(4-chlorobenzoyl)-5-methoxy-2-methyl-1H-indol-3-yl)acetate]
Observed property [2]: 48.6
1/(observed property) [4]: 0.016
Observed property [4]: 62.5

COc1ccc2c(c1)c(CC(=O)OCc1cn(-c3ccccc3OC)nn1)c(C)n2C(=O)c1ccc(Cl)cc1 [Compound 8e, (1-(2-Methoxyphenyl)-1H-1,2,3-triazol-4-yl)methyl 2-(1-(4-chlorobenzoyl)-5-methoxy-2-methyl-1H-indol-3-yl)acetate]
Observed property [2]: 28.9
1/(observed property) [4]: 0.01238
Observed property [4]: 80.8

COc1ccc(-n2cc(COC(=O)Cc3c(C)n(C(=O)c4ccc(Cl)cc4)c4ccc(OC)cc34)nn2)cc1 [Compound 8f, (1-(4-Methoxyphenyl)-1H-1,2,3-triazol-4-yl)methyl 2-(1-(4-chlorobenzoyl)-5-methoxy-2-methyl-1H-indol-3-yl)acetate]
Observed property [2]: 66.5
1/(observed property) [4]: 0.01497
Observed property [4]: 66.8

COc1ccc2c(c1)c(CC(=O)OCc1cn(-c3ccc([N+](=O)[O-])cc3)nn1)c(C)n2C(=O)c1ccc(Cl)cc1 [Compound 8g, (1-(4-Nitrophenyl)-1H-1,2,3-triazol-4-yl)methyl 2-(1-(4-chlorobenzoyl)-5-methoxy-2-methyl-1H-indol-3-yl)acetate]
Observed property [2]: 2.7
1/(observed property) [4]: 0.01038
Observed property [4]: 96.3

CC(C)Cc1ccc(C(C)C(=O)O)cc1 (stereo not drawn) [Ibu, 2-(4-isobutylphenyl)propanoic acid, reference compound]
% Protection ([2]; After 30 min.): (61.7) %
% Protection ([2]; After 120 min.): (54.3) %
Potency [2]: 96.1%
% Incidence of ulcer divided by 10 ([3]; oral): 3.33
Average of ulcer number ([3]; oral): 0.33
Average severity of ulcer ([3]; oral): 0.67
Number of animals with ulcer ([3]; oral): 2/6
Potency [4]: 81.5%
% Inhibition/protection [4]: 58.5%
